Data taken from patent US11807634B2, “Cyclopropyl dihydroquinoline sulfonamide compounds” (AMGEN INC., priority 2020, dated 2023).

Test system: CYP3A4
Experiment: Human CYP 3A4 induction assay (mRNA, cryopreserved human hepatocytes)
Assay type: in vitro ADME
Details: human hepatocytes, 10 uM test compound, 72 hours, mRNA, percent of control (rifampin positive control)
Procedure: Human CYP 3A4 Induction Assay
Cryopreserved human hepatocytes were seeded in 96-well collagen coated plates at 70,000 cells per well in hepatocyte plating media (HPM, final concentrations: 1× Dulbecco's Modified Eagle's Medium, 0.1 μM dexamethasone, 10% fetal bovine serum, 1× ITS, 1×PSG) followed by incubation at 37° C. under 5% CO2 and 90% relative humidity for 2 days to allow hepatocytes to form a confluent layer. On Day 3, hepatocytes were treated with either test compound or rifampin (20 μM, positive control for CYP3A induction) prepared in hepatocyte incubation media ((HIM, final concentrations: 1× William's Medium E, 0.1 μM dexamethasone, 1×ITS, 1×PSG). Treatment was performed for 72 hours with either 2 concentrations (2 μM or 10 μM) or a range of concentrations (0.001 μM to 100 μM) of the test compound to obtain full dose-response curve. Fresh media containing the relevant concentrations of the test compound was replaced every day until the samples were processed. After 72 hours of incubation, samples were processed for mRNA analysis using bDNA technology using manufacturer's instructions (Affymetrix, Fremont, Calif.). Cell viability was tested at the end of the experiment using MTT assay kit (Roche Diagnostics, Basel, Switzerland). Data was analyzed and presented as percent of control (POC) and Emax and EC50 obtained when appropriate according to guidance from Center for Drug Evaluation and Research (CDER), 2006, Guidance for Industry, Drug Interaction Studies—Study Design, Data Analysis, and Implications for Dosing and Labeling.
Cryopreserved human hepatocytes were seeded in 96-well collagen coated plates at 70,000 cells per well in hepatocyte plating media (HPM, final concentrations: 1× Dulbecco's Modified Eagle's Medium, 0.1 μM dexamethasone, 10% fetal bovine serum, 1×ITS, 1×PSG) followed by incubation at 37° C. under 5% CO2 and 90% relative humidity for 2 days to allow hepatocytes to form a confluent layer. On Day 3, hepatocytes were treated with either test compound or rifampin (20 μM, positive control for CYP3A induction) prepared in hepatocyte incubation media ((HIM, final concentrations: 1× William's Medium E, 0.1 μM dexamethasone, 1×ITS, 1×PSG). Treatment was performed for 72 hours with either 2 concentrations (2 μM or 10 μM) or a range of concentrations (0.001 μM to 100 μM) of the test compound to obtain full dose-response curve. Fresh media containing the relevant concentrations of the test compound was replaced every day until the samples were processed. After 72 hours of incubation, samples were processed for mRNA analysis using bDNA technology using manufacturer's instructions (Affymetrix, Fremont, Calif.). Cell viability was tested at the end of the experiment using MTT assay kit (Roche Diagnostics, Basel, Switzerland). Data was analyzed and presented as percent of control (POC) and Emax and EC50 obtained when appropriate, as described in Halladay, J. et al, 2012, An “all-inclusive” 96-well cytochrome P450 induction method: Measuring enzyme activity, mRNA levels, protein levels, and cytotoxicity from one well using cryopreserved human hepatocytes, Pharmacological and Toxicological Methods, 66:270-275.
The cytochrome P450 (CYP) is a well-known superfamily of enzymes that are responsible for the oxidative and reductive metabolic transformation of medications used in clinical practice. In addition, the CYP enzymes are commonly associated with causing many clinically relevant drug-drug interactions. Of the CYP enzymes, CYP3A4 is not only the most prevalent CYP enzyme in the liver and intestine, but is responsible for metabolism and elimination of approximately 50% of marketed drugs. In addition, CYP3A4 activity can be induced (or increased) or inhibited (decreased) in response to administration of certain drugs, thereby affecting concentrations of their own or certain concomitant drugs present in the body. […]

Row | SMILES | CYP3A4 mRNA Induct Hu 10 uM POC [%]
1 | COc1cc([C@H]2C[C@@H]2c2ccccc2)c(F)cc1-n1c(=O)ccc2cc(S(=O)(=O)Nc3ccon3)ccc21 (atropisomer, axis not shown; (P)) [Example 9, (P)-1-(5-fluoro-2-methoxy-4-((1S,2S)-2-phenylcyclopropyl)phenyl)-N-(isoxazol-3-yl)-2-oxo-1,2-dihydroquinoline-6-sulfonamide] | 37.165
2 | COc1cc([C@H]2C[C@@H]2C(F)(F)F)c(F)cc1-n1c(=O)ccc2cc(S(=O)(=O)Nc3ccon3)c(F)cc21 (single isomer, unassigned) [Example 46] | 53.03
3 | COc1cc([C@@H]2C[C@H]2C(F)(F)F)c(F)cc1-n1c(=O)ccc2cc(S(=O)(=O)Nc3ncccn3)ccc21 (atropisomer, axis not shown; (P)) [Example 20, (P)-1-(5-fluoro-2-methoxy-4-((1R,2R)-2-(trifluoromethyl)cyclopropyl)phenyl)-2-oxo-N-(pyrimidin-2-yl)-1,2-dihydroquinoline-6-sulfonamide] | 67.47
4 | COc1cc(C2(C(F)(F)F)CC2)c(Cl)cc1-n1c(=O)ccc2cc(S(=O)(=O)Nc3ccon3)ccc21 (atropisomer, axis not shown; (P)) [Example 24, (P)-1-(5-chloro-2-methoxy-4-(1-(trifluoromethyl)cyclopropyl)phenyl)-N-(isoxazol-3-yl)-2-oxo-1,2-dihydroquinoline-6-sulfonamide] | 100.7
5 | COc1cc([C@H]2C[C@@H]2C(F)(F)F)c(C)cc1-n1c(=O)ccc2cc(S(=O)(=O)Nc3ccon3)ccc21 (single isomer, unassigned) [Example 27] | 64.14
6 | COc1cc([C@H]2C[C@@H]2C2CC2)c(F)cc1-n1c(=O)ccc2cc(S(=O)(=O)Nc3ccon3)ccc21 (atropisomer, axis not shown; (P)) [Example 31, (P)-1-(4-((1R,2S)-[1,1′-bi(cyclopropan)]-2-yl)-5-fluoro-2-methoxyphenyl)-N-(isoxazol-3-yl)-2-oxo-1,2-dihydroquinoline-6-sulfonamide] | 100.7
7 | COc1cc([C@@H]2C[C@H]2C(F)(F)F)ccc1-n1c(=O)ccc2cc(S(=O)(=O)Nc3ccon3)c(F)cc21 (atropisomer, axis not shown; (P)) [Example 47, (P)-7-fluoro-N-(isoxazol-3-yl)-1-(2-methoxy-4-((1R,2R)-2-(trifluoromethyl)cyclopropyl)phenyl)-2-oxo-1,2-dihydroquinoline-6-sulfonamide] | 14.245
8 | COc1cc([C@@H]2C[C@H]2C)c(F)cc1-n1c(=O)ccc2cc(S(=O)(=O)Nc3ccon3)ccc21 (atropisomer, axis not shown; (P)) [Example 6, (P)-1-(5-fluoro-2-methoxy-4-((1R,2R)-2-methylcyclopropyl)phenyl)-N-(isoxazol-3-yl)-2-oxo-1,2-dihydroquinoline-6-sulfonamide] | 25.49

Second part, the molecule after the results:

Row | CYP3A4 mRNA Induct Hu 10 uM POC [%] | SMILES
9 | 85.95 | COc1cc(C2(C(F)(F)F)CC2)c(F)cc1-n1c(=O)ccc2cc(S(=O)(=O)Nc3ncccn3)ccc21 (atropisomer, axis not shown; (P)) [Example 23, (P)-1-(5-fluoro-2-methoxy-4-(1-(trifluoromethyl)cyclopropyl)phenyl)-2-oxo-N-(pyrimidin-2-yl)-1,2-dihydroquinoline-6-sulfonamide]
10 | 69.11 | COc1cc([C@H]2C[C@@H]2C(F)(F)F)c(Cl)cc1-n1c(=O)ccc2cc(S(=O)(=O)Nc3cccnn3)ccc21 (single isomer, unassigned) [Example 15]
11 | 13.21 | O=c1ccc2cc(S(=O)(=O)Nc3ccon3)ccc2n1-c1cc(F)c([C@H]2C[C@@H]2C(F)(F)F)cc1OC1CC1 (single isomer, unassigned) [Example 41]
12 | 84.31 | COc1cc(C2CC2)c(F)cc1-n1c(=O)ccc2cc(S(=O)(=O)Nc3ccon3)ccc21 [A, 1-(4-cyclopropyl-5-fluoro-2-methoxyphenyl)-N-(isoxazol-3-yl)-2-oxo-1,2-dihydroquinoline-6-sulfonamide, reference compound]
13 | 9.92 | COc1cc([C@@H]2C[C@H]2C(F)(F)F)c(Cl)cc1-n1c(=O)ccc2cc(S(=O)(=O)Nc3ccon3)ccc21 (atropisomer, axis not shown; (P)) [Example 18, (P)-1-(5-chloro-2-methoxy-4-((1R,2R)-2-(trifluoromethyl)cyclopropyl)phenyl)-N-(isoxazol-3-yl)-2-oxo-1,2-dihydroquinoline-6-sulfonamide]
14 | 85.5 | COc1cc([C@H]2C[C@@H]2C(F)(F)F)c(Cl)cc1-n1c(=O)ccc2cc(S(=O)(=O)Nc3ccon3)ccc21 (atropisomer, axis not shown; (P)) [Example 19, (P)-1-(5-chloro-2-methoxy-4-((1S,2S)-2-(trifluoromethyl)cyclopropyl)phenyl)-N-(isoxazol-3-yl)-2-oxo-1,2-dihydroquinoline-6-sulfonamide]
15 | 16.39 | COc1cc([C@H]2C[C@@H]2C(F)(F)F)c(C#N)cc1-n1c(=O)ccc2cc(S(=O)(=O)Nc3ccon3)ccc21 (atropisomer, axis not shown; (P)) [Example 37, (P)-1-(5-cyano-2-methoxy-4-((1S,2S)-2-(trifluoromethyl)cyclopropyl)phenyl)-N-(isoxazol-3-yl)-2-oxo-1,2-dihydroquinoline-6-sulfonamide]
16 | 15.9 | COc1cc([C@H]2C[C@@H]2C(F)(F)F)c(F)cc1-n1c(=O)ccc2cc(S(=O)(=O)Nc3ccon3)ccc21 (atropisomer, axis not shown; (P)) [Example 4, (P)-1-(5-fluoro-2-methoxy-4-((1S,2S)-2-(trifluoromethyl)cyclopropyl)phenyl)-N-(isoxazol-3-yl)-2-oxo-1,2-dihydroquinoline-6-sulfonamide]
